According to PubChem BioAssay AID248 (DTP/NCI, 2004):
“And” between values parts separate entries of the source, which are not always exact repeats. Equal entries are not always repeated. Toxic doses and inconclusive results are not listed. No stated cut-off is given here; in the data, active means T/C of 150% or more; inactive means T/C below 125%.

System: L1210 leukemia ip in BDF1 mice, survival T/C
Test: NCI In Vivo Anticancer Drug Screen. Data for tumor model L1210 Leukemia (intraperitoneal) in B6D2F1 (BDF1) mice
Settings: endpoint: mean survival time, higher = longer survival
In short: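 Value reflects the ratio of survival in compound-treated mice to survival in vehicle-treated controls, with both groups carrying the same transplanted tumor.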

[1] = dose: 100.0 mg/kg/injection, schedule: Q01DX009 (ip), vehicle: Klucel (hydroxypropylcellulose) (HPC)
[2] = dose: 100.0 mg/kg/injection, schedule: Q04DX003 (ip), vehicle: Klucel (hydroxypropylcellulose) (HPC)
[3] = dose: 200.0 mg/kg/injection, schedule: Q01DX009 (ip), vehicle: Klucel (hydroxypropylcellulose) (HPC)
[4] = dose: 200.0 mg/kg/injection, schedule: Q04DX003 (ip), vehicle: Klucel (hydroxypropylcellulose) (HPC)
[5] = dose: 400.0 mg/kg/injection, schedule: Q01DX009 (ip), vehicle: Klucel (hydroxypropylcellulose) (HPC)
[6] = dose: 400.0 mg/kg/injection, schedule: Q04DX003 (ip), vehicle: Klucel (hydroxypropylcellulose) (HPC)
[7] = dose: 100.0 mg/kg/injection, schedule: Q04DX003 (ip), vehicle: saline
[8] = dose: 100.0 mg/kg/injection, schedule: Q04DX003 (ip), vehicle: saline with Tween-80
[9] = dose: 200.0 mg/kg/injection, schedule: Q04DX003 (ip), vehicle: saline with Tween-80
[10] = dose: 400.0 mg/kg/injection, schedule: Q04DX003 (ip), vehicle: saline with Tween-80
[11] = dose: 100.0 mg/kg/injection, schedule: Q04DX002 (ip), vehicle: Klucel (hydroxypropylcellulose) (HPC)
[12] = dose: 100.0 mg/kg/injection, schedule: Q01DX001 (ip), vehicle: saline with Tween-80
[13] = dose: 200.0 mg/kg/injection, schedule: Q01DX001 (ip), vehicle: saline with Tween-80
[14] = dose: 400.0 mg/kg/injection, schedule: Q01DX001 (ip), vehicle: saline with Tween-80
[15] = dose: 50.0 mg/kg/injection, schedule: Q01DX001 (ip), vehicle: saline
[16] = dose: 100.0 mg/kg/injection, schedule: Q01DX001 (ip), vehicle: saline
[17] = dose: 200.0 mg/kg/injection, schedule: Q01DX001 (ip), vehicle: saline
[18] = dose: 400.0 mg/kg/injection, schedule: Q01DX001 (ip), vehicle: saline

Measured: T/C

C=C/C=C/CCN1CC1
inactive: dose: 12.5 mg/kg/injection, schedule: Q04DX003 (ip), vehicle: Klucel (hydroxypropylcellulose) (HPC) 114 % of control | dose: 25.0 mg/kg/injection, schedule: Q04DX003 (ip), vehicle: Klucel (hydroxypropylcellulose) (HPC) 112 % of control | dose: 50.0 mg/kg/injection, schedule: Q04DX003 (ip), vehicle: Klucel (hydroxypropylcellulose) (HPC) 106 % of control

Cc1ccc(N=C(c2ccccc2)c2ccc([N+](=O)[O-])cc2)cc1
inactive: [1] 98 % of control | [2] 105 % of control | [3] 101 % of control | [4] 93 % of control | [5] 103 % of control | [6] 102 % of control

O=C1OCC/C1=C\c1ccccc1
inactive: dose: 100.0 mg/kg/injection, schedule: Q01DX001 (ip), vehicle: carboxymethylcellulose (CMC) 91 % of control | dose: 200.0 mg/kg/injection, schedule: Q01DX001 (ip), vehicle: carboxymethylcellulose (CMC) 94 % of control

CC(=O)Nc1cccc(OCCCOc2cccc(C#N)c2)c1
inactive: [2] 96 % of control | [4] 101 % of control | [6] 98 % of control

O=C(O)c1ccc(F)c(F)c1
inactive: dose: 100.0 mg/kg/injection, schedule: Q04DX002 (ip), vehicle: other 110 % of control | dose: 200.0 mg/kg/injection, schedule: Q04DX002 (ip), vehicle: other 115 % of control | dose: 400.0 mg/kg/injection, schedule: Q04DX002 (ip), vehicle: other 107 % of control

CCOC(=O)C1(C)C(=O)CC2c3nc4ccccc4cc3CN2C1=O (stereo not given)
inactive: [1] 109 % of control | [2] 107 % of control | [3] 113 % of control | [4] 100 % of control | [5] 92 % of control | [6] 97 % of control

CCN(CC)CCOc1c(C(C)C)cccc1C(C)C
inactive: dose: 12.5 mg/kg/injection, schedule: Q01DX009 (ip), vehicle: saline 101 % of control | dose: 25.0 mg/kg/injection, schedule: Q01DX009 (ip), vehicle: saline 108 % of control | dose: 50.0 mg/kg/injection, schedule: Q01DX009 (ip), vehicle: saline 108 % of control and 89 % of control | [7] 117 % of control

O=Cc1csc2ncccc12
inactive: [8] 103 % of control | [9] 100 % of control | [10] 105 % of control

C[N+](C)(C)CCSc1ccc2c3c(cccc13)C(=O)c1ccccc1-2
inactive: dose: 12.5 mg/kg/injection, schedule: Q04DX002 (ip), vehicle: saline 107 % of control | dose: 25.0 mg/kg/injection, schedule: Q04DX002 (ip), vehicle: saline 104 % of control | dose: 50.0 mg/kg/injection, schedule: Q04DX002 (ip), vehicle: saline 86 % of control

CC(C)OC(=O)Oc1cccc2c1C(=O)c1ccccc1C2=O
inactive: [1] 91 % of control | [2] 97 % of control | [3] 91 % of control | [4] 93 % of control | [6] 104 % of control

NS(=O)(=O)c1ccc(S(=O)(=O)N2CCCCC2)cc1
inactive: [1] 90 % of control | [3] 96 % of control

CCOC(=O)c1ccc(NC(=O)c2cccc(Cl)c2)cc1
inactive: [11] 94 % of control

CC(=O)OCCNc1ccc([N+](=O)[O-])cc1[N+](=O)[O-]
inactive: dose: 100.0 mg/kg/injection, schedule: Q01DX009 (ip), vehicle: acetone 109 % of control | [7] 101 % of control | dose: 200.0 mg/kg/injection, schedule: Q01DX009 (ip), vehicle: acetone 97 % of control | dose: 200.0 mg/kg/injection, schedule: Q04DX003 (ip), vehicle: saline 103 % of control | dose: 400.0 mg/kg/injection, schedule: Q01DX009 (ip), vehicle: acetone 112 % of control | dose: 400.0 mg/kg/injection, schedule: Q04DX003 (ip), vehicle: saline 95 % of control

CCCCCCc1c(N)nc(N)[nH]c1=O
inactive: [12] 98 % of control | [13] 89 % of control | [14] 98 % of control

CCC1(O)C(=O)OCc2c1c(Br)c(-c1ccccc1)n(C)c2=O (stereo not given)
inactive: dose: 25.0 mg/kg/injection, schedule: Q01DX001 (ip), vehicle: saline with Tween-80 110 % of control | dose: 50.0 mg/kg/injection, schedule: Q01DX001 (ip), vehicle: saline with Tween-80 102 % of control | [13] 121 % of control

OCC(O)C(O)C(O)C(O)C(c1ccc(Br)cc1)c1ccc(Br)cc1 (stereo not given)
inactive: [15] 106 % of control | [16] 106 % of control | [17] 101 % of control | [18] 98 % of control

CCCCNc1nc(N)nc(N)c1[N+](=O)[O-]
inactive: [2] 103 % of control | [4] 98 % of control | [6] 101 % of control

O=S(=O)(N/N=C/c1cc(Cl)ccc1O)c1cc(Cl)c(Cl)cc1Cl
inactive: dose: 5.0 mg/kg/injection, schedule: Q01DX Z (ip), vehicle: other 107 % of control | dose: 10.0 mg/kg/injection, schedule: Q01DX Z (ip), vehicle: other 110 % of control | dose: 20.0 mg/kg/injection, schedule: Q01DX Z (ip), vehicle: other 105 % of control

c1ccc(CCSc2ccccc2)cc1
inactive: dose: 100.0 mg/kg/injection, schedule: Q01DX009 (ip), vehicle: saline with Tween-80 102 % of control | [8] 103 % of control | dose: 200.0 mg/kg/injection, schedule: Q01DX009 (ip), vehicle: saline with Tween-80 98 % of control | [9] 97 % of control | dose: 400.0 mg/kg/injection, schedule: Q01DX009 (ip), vehicle: saline with Tween-80 95 % of control | [10] 94 % of control

[O-][N+](CCO)(CCO)Cc1ccccc1
inactive: [15] 103 % of control | [16] 103 % of control | [17] 103 % of control | [18] 101 % of control

Cc1cccc(Nc2n[nH]c(=S)s2)c1
inactive: [1] 93 % of control | [3] 98 % of control | [5] 87 % of control

CC(C)(CP(c1ccccc1)c1ccccc1)c1ccccc1
inactive: dose: 25.0 mg/kg/injection, schedule: Q04DX002 (ip), vehicle: saline with Tween-80 95 % of control | dose: 50.0 mg/kg/injection, schedule: Q04DX002 (ip), vehicle: saline with Tween-80 95 % of control | dose: 100.0 mg/kg/injection, schedule: Q04DX002 (ip), vehicle: saline with Tween-80 89 % of control | dose: 200.0 mg/kg/injection, schedule: Q04DX002 (ip), vehicle: saline with Tween-80 92 % of control

COc1ccc(/C=N/NC(=O)c2ccccc2O)cc1
inactive: [1] 98 % of control | [3] 96 % of control | [5] 112 % of control

COc1ccc(C2NC(=O)c3ccccc3N2)c(OC)c1OC (stereo not given)
inactive: [1] 105 % of control | [2] 97 % of control | [3] 100 % of control | [4] 101 % of control | [5] 106 % of control | [6] 102 % of control

CCCP(=S)(CC)CC
inactive: [11] 90 % of control | dose: 200.0 mg/kg/injection, schedule: Q04DX002 (ip), vehicle: Klucel (hydroxypropylcellulose) (HPC) 93 % of control | dose: 400.0 mg/kg/injection, schedule: Q04DX002 (ip), vehicle: Klucel (hydroxypropylcellulose) (HPC) 90 % of control

COc1ccc2c(c1OC)CC[N+]1=C3CCCCC3=C(N)CC21 (stereo not given)
inactive: [12] 97 % of control | [13] 97 % of control | [14] 96 % of control
